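Test compounds were applied to cells in 96-well plates for 48 hours at 5 doses. GI50 = concentration required for 50% inhibition of growth.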 The source made the active and inactive calls. No stated cut-off is given here; in the data, active = GI50 up to about 1.1 µM and inactive = higher.
Assays:
Test in all cases: NCI anticancer screen, dose series, 48 h
NCI-H522 = system: NCI-H522
TK-10 = system: TK-10
OVCAR-3 = system: OVCAR-3
786-0 = system: 786-0
COLO 205 = system: COLO 205
SF-539 = system: SF-539
SNB-75 = system: SNB-75
HT-29 = system: HT-29
NCI-H226 = system: NCI-H226
A549 = system: A549
Malme-3M = system: Malme-3M
IGROV-1 = system: IGROV-1
SR = system: SR
U-251 = system: U-251
OVCAR-8 = system: OVCAR-8
EKVX = system: EKVX

Measured: GI50

COc1ccc(Nc2nc3ccc(C(F)(F)F)cc3nc2-c2ccccc2)cc1OC
inactive: NCI-H522 24.7 µM | TK-10 > 10 µM | OVCAR-3 54.7 µM | 786-0 23.3 µM | COLO 205 27.9 µM | SF-539 42.6 µM | SNB-75 > 100 µM | HT-29 6.65 µM | NCI-H226 28.6 µM | A549 39.5 µM | Malme-3M 51.9 µM | IGROV-1 60.7 µM | SR 21.4 µM | U-251 34.1 µM | OVCAR-8 58.6 µM | EKVX 20.7 µM

Cc1ccc(C)c(NC(=O)CC/C(=N\NC(=O)c2c(O)ccc3ccccc23)C(C)C(=O)c2ccc(O)cc2)c1 (configuration not stated)
inactive: NCI-H522 19.9 µM | TK-10 > 100 µM | OVCAR-3 23.3 µM | 786-0 28.5 µM | COLO 205 25.2 µM | SF-539 30.7 µM | SNB-75 20.2 µM | HT-29 46.9 µM | NCI-H226 37.1 µM | A549 65 µM | Malme-3M 34.8 µM | IGROV-1 52 µM | SR 27.8 µM | U-251 31.8 µM | OVCAR-8 26.1 µM

O=C(/C=C/c1c(O)ccc2ccccc12)c1ccccc1Cl
inactive: NCI-H522 26.7 µM | TK-10 > 100 µM | OVCAR-3 26.1 µM | 786-0 60.8 µM | COLO 205 17.8 µM | SF-539 26.5 µM | SNB-75 25.3 µM | HT-29 46.5 µM | NCI-H226 > 100 µM | A549 32.5 µM | Malme-3M 18.5 µM | IGROV-1 55.5 µM | U-251 37.8 µM | OVCAR-8 32 µM | EKVX 67.9 µM

Clc1cccc(Cl)c1C1SCc2nc3ccccc3n21 (configuration not stated)
inactive: NCI-H522 > 100 µM | TK-10 > 100 µM | OVCAR-3 > 100 µM | 786-0 > 100 µM | COLO 205 > 100 µM | SF-539 > 100 µM | SNB-75 88.3 µM | HT-29 43.9 µM | NCI-H226 > 100 µM | A549 > 100 µM | Malme-3M > 100 µM | IGROV-1 37.2 µM | SR 5.38 µM | U-251 > 100 µM | OVCAR-8 > 100 µM | EKVX 78.3 µM

Cn1c(=O)c2c(nc3n2CCC(=O)N3)n(C)c1=O
inactive: NCI-H522 > 100 µM | TK-10 > 100 µM | 786-0 > 100 µM | COLO 205 > 100 µM | SF-539 > 100 µM | HT-29 > 100 µM | NCI-H226 > 100 µM | A549 > 100 µM | Malme-3M > 100 µM | IGROV-1 > 100 µM | SR > 100 µM | U-251 > 100 µM | OVCAR-8 > 100 µM | EKVX > 100 µM

CCOC(=O)NC(=O)c1cn(CCN2CCN(C(=O)CNC(=O)CNC(=O)Cn3cc(C(=O)NC(=O)OCC)c(=O)[nH]c3=O)CC2)c(=O)[nH]c1=O
inactive: NCI-H522 > 100 µM | TK-10 > 100 µM | OVCAR-3 > 100 µM | 786-0 > 100 µM | COLO 205 > 100 µM | SF-539 > 100 µM | SNB-75 > 100 µM | HT-29 > 100 µM | A549 > 100 µM | Malme-3M > 100 µM | SR > 100 µM | U-251 > 100 µM | OVCAR-8 > 100 µM

COc1ccc2c(c1)C(=O)N1CCOC1C2C(=O)O (configuration not stated)
inactive: NCI-H522 > 100 µM | TK-10 > 100 µM | OVCAR-3 > 100 µM | 786-0 > 100 µM | SF-539 > 100 µM | SNB-75 > 100 µM | HT-29 > 100 µM | A549 > 100 µM | IGROV-1 > 100 µM | SR > 100 µM | U-251 > 100 µM | OVCAR-8 > 100 µM | EKVX > 100 µM

O=C(Cc1nc2ccccc2s1)NC12CC3CC(CC(C3)C1)C2
inactive: NCI-H522 > 100 µM | TK-10 > 100 µM | 786-0 > 100 µM | SF-539 > 100 µM | SNB-75 > 100 µM | HT-29 > 100 µM | NCI-H226 > 100 µM | A549 > 100 µM | Malme-3M > 100 µM | SR > 100 µM | U-251 > 100 µM | OVCAR-8 > 100 µM | EKVX > 100 µM

Brc1cc(C2OCCCO2)ccc1OCc1ccccc1
inactive: NCI-H522 26.9 µM | TK-10 40.7 µM | OVCAR-3 74.1 µM | 786-0 40.4 µM | COLO 205 27.4 µM | SF-539 64.3 µM | SNB-75 45.3 µM | HT-29 17.5 µM | NCI-H226 73.1 µM | A549 64.6 µM | Malme-3M 31.8 µM | IGROV-1 > 100 µM | OVCAR-8 57.3 µM | EKVX 52.8 µM

NC1(CCCCCCCCCCC(=O)O)CNCCNCCNCCNC1
inactive: NCI-H522 55.5 µM | TK-10 31.2 µM | OVCAR-3 59 µM | 786-0 36.7 µM | COLO 205 15.6 µM | SF-539 54.1 µM | HT-29 40.8 µM | A549 57.5 µM | Malme-3M 78.3 µM | IGROV-1 26.9 µM | SR 22.7 µM | OVCAR-8 67.3 µM | EKVX 94.6 µM

OCC(O)C(O)C(O)c1nn(-c2ccc(F)cc2)c2nc3cc(Cl)c(Cl)cc3nc12 (configuration not stated)
inactive: NCI-H522 14.9 µM | TK-10 21.5 µM | OVCAR-3 21.8 µM | 786-0 17.3 µM | COLO 205 69 µM | SF-539 13.9 µM | SNB-75 3.94 µM | HT-29 56 µM | NCI-H226 24.2 µM | A549 13.3 µM | Malme-3M 9.51 µM | IGROV-1 21.9 µM | U-251 29.8 µM | OVCAR-8 11 µM | EKVX 18.9 µM

N#C/C(=C\c1cc(OCc2ccccc2)c(OCc2ccccc2)cn1)C(N)=O
inactive: NCI-H522 19.1 µM | TK-10 > 100 µM | OVCAR-3 > 100 µM | 786-0 > 100 µM | COLO 205 > 100 µM | SF-539 > 100 µM | SNB-75 36.7 µM | HT-29 > 100 µM | NCI-H226 > 100 µM | A549 > 100 µM | Malme-3M > 100 µM | IGROV-1 > 100 µM | U-251 > 100 µM | OVCAR-8 > 100 µM | EKVX > 100 µM

OCC1OC2c3ccccc3COC2C1OCc1ccccc1 (configuration not stated)
inactive: NCI-H522 70.1 µM | TK-10 > 100 µM | OVCAR-3 > 100 µM | 786-0 > 100 µM | COLO 205 > 100 µM | SNB-75 > 100 µM | HT-29 > 100 µM | NCI-H226 > 100 µM | A549 > 100 µM | Malme-3M > 100 µM | IGROV-1 > 100 µM | SR > 100 µM | U-251 > 100 µM | OVCAR-8 > 100 µM | EKVX > 100 µM

CCCCCCCCC(=O)NCCCNCCCNC(=O)CCCCCCCC
inactive: NCI-H522 5.05 µM | TK-10 15.1 µM | OVCAR-3 15.5 µM | 786-0 1.86 µM | COLO 205 4.88 µM | SF-539 15.7 µM | HT-29 2.92 µM | NCI-H226 17.9 µM | A549 14.3 µM | Malme-3M 12.6 µM | IGROV-1 4.35 µM | SR 2.62 µM | U-251 3.25 µM | OVCAR-8 14.9 µM | EKVX 14.9 µM

Reference: ChEMBL document CHEMBL1201862, “PubChem BioAssay data set” (2004)
